Where two headings read alike, the source gives them in different places.
Tests used:
[1] = Plasma pharmacokinetics of LAAM in rabbits (intravenous, oral, buccal); details: rabbit
Experimental: Twenty-four New Zealand white rabbits of mixed gender (weighing 3.6-4.0 kg) were obtained from ENVIGO and used in this study. […] All animal protocols were approved by the Institutional Animal Care and Use Committee at the Virginia Commonwealth University. […] Rabbits were anesthetized following an intramuscular injection of ketamine (50 mg/kg) and xylazine (5-7 mg/kg), followed by applying buccal films (1 mg/kg) into the buccal pouch. […] An oral solution (1 mg/kg) was administered by an oral syringe (1 mL), followed by an injection of ketamine/xylazine. After anesthesia, a catheter was inserted via the marginal ear vein for blood collection before dosing and at pre-determined time points (30 min before and at 5, 15, 30 min, and 1, 2, 3, 4, 8, 12, 24, 48, 72, 96, and 120 h) following administration. Eppendorf tubes contained EDTA (0.5 M) to prevent blood coagulation. Blood samples were placed on ice immediately following the collection for no longer than 5 min, plasma was separated by centrifugation (3000 g, at 0° C. for 3 min) and stored at −80° C. until analysis. At the endpoint (120 h), all animals were sacrificed. Urine, interest tissues (buccal mucosa, kidney, spleen, liver, gallbladder, muscle, brain, and spinal cord, mesenteric fat, perirenal fat, neck fat, inguinal fat) were harvested and stored at −80° C. until analysis. The buccal mucosa tissues and control in contact with fiber film formulations were collected for histopathological analysis using H&E staining. […] Non-compartmental analysis (NCA) was applied to calculate pharmacokinetic parameters derived from plasma concentration-time profiles. The absolute bioavailability was subsequently calculated by comparing respective AUCs, as shown by the following equation: […]

[2] = rats; cited from earlier work
[3] = weak base; cited from earlier work
[4] = humans; cited from earlier work
[5] = high permeability according to the FDA; cited from earlier work
[6] = both, New Zealand white, plasma, iv, 0.8 mg/kg
[7] = both, New Zealand white, plasma, po, 1 mg/kg

SMILES | AUC(0-inf) [1, 6] | AUC(0-t) [1, 6] | C0 [1, 6] | Vd [1, 6] | clearance [1, 6] | AUC(0-inf) [1, 7] | AUC(0-t) [1, 7] | Cmax [1, 7] | Tmax [1, 7] | LAAM F (%), bioavailability, calculated by AUCinf ([1]; LAAM oral solution 1 mg/kg) | Oral bioavailability (Foral %) [2] | pKa [3] | Oral bioavailability (Foral %) [4] | Permeability of model drug [5]
CC[C@H](OC(C)=O)C(C[C@H](C)N(C)C)(c1ccccc1)c1ccccc1 [LAAM, [(3S,6S)-6-(dimethylamino)-4,4-diphenylheptan-3-yl]acetate] | 284 ± 94.7 ng·h/mL | 274 ± 91.6 ng·h/mL | 288 ± 133 ng/mL | 30.6 ± 6.3 L/kg | 51.7 mL/min/kg | 69.5 ± 10 ng·h/mL | 65.7 ± 10.1 ng·h/mL | 20.7 ± 3.4 ng/mL | 24 ± 12 min | 19.6 ± 2.8% | ~60% | 9.87 | approximately 50% | 
COCCc1ccc(OCC(O)CNC(C)C)cc1 (centres unmarked) [metoprolol] |  |  |  |  |  |  |  |  |  |  |  |  |  | 11 ×10⁻⁶ cm/s

Reference: US20250302751A1, “FORMULATIONS FOR ADM[…], norLAAM AND dinorLAAM AND METHODS OF THEIR USE TO TREAT OPIOID USE DISORDER” (VIRGINIA COMMONWEALTH UNIVERSITY, priority 2022, published 2025)
